Assay results taken from US20130190217A1, “ESTER OILS” (PANOLIN Holding AG, priority 2010, published 2013).
Several values for one entry are separate records, joined by “and”; a condition that tells them apart may be missing. Identical values can stand only once. Blank lines part the entries; values can stand above or below the compound they belong to.

How the values were obtained:
Flashpoint = format: physicochemical
Kinematic viscosity = format: physicochemical
Pour point = format: physicochemical
Text: In addition, the inventive ester oils have a high flashpoint, such that use at relatively high oil sump and component temperatures is possible without risk. In addition, the pour point of the ester oils is relatively low, as a result of which the esters are also usable at low temperatures. For a liquid product, the pour point denotes the temperature at which it is still just free-flowing in the course of cooling. Thus, the inventive ester oils can be used within a broad temperature range.

Viscosity index (VI) = format: physicochemical
[1] = NOACK vaporization (physical vaporization according to Noack, 250° C. for 1 h); format: physicochemical
Text: Trimethylolpropane esters (TMP-C8/C10) are commercially available from various suppliers and have been used for comparative purposes.

[2] = UBA number 4203; cited from earlier work
[3] = taken from safety data sheets; cited from earlier work
[4] = High-Temperature High-Shear Viscosity (HTHS); format: physicochemical; conditions: 150° C.
Experimental: (§1) For the C12D13 esters and the C10D13 esters, three independently prepared samples were included in each case. For the C9D13 ester and for the D5C18 ester, one sample was analyzed in each case. The “CCS−25° C. [mPas]” and “CCS−20° C. [mPas]” columns each contain figures for the “Cold Crank Simulator” according to the standard ASTM D5293 at −25° C. and −20° C. The HTHS150° C. [mPas] column indicates what is called the “High-Temperature High-Shear Viscosity” (HTHS) at elevated temperature.

Density = format: physicochemical; conditions: Table 3
[5] = Cold Crank Simulator according to ASTM D5293; format: physicochemical
Experimental: as §1

[6] = taken from safety data sheets; cited from earlier work; remark: listed apart in the source
[7] = taken from safety data sheets; cited from earlier work; remark: listed apart in the source
[8] = Table 3, listed as C10D13 (4th sample)
[9] = Table 3, listed as C10D13 (5th sample)
[10] = Table 3, listed as C12D13 (1st sample)
[11] = Table 3, listed as C12D13 (2nd sample)
[12] = Table 3, listed as C12D13 (3rd sample)

Compound: CCCCCCCCC(CCCCCC)COC(=O)CCCCCCCC(=O)OCC(CCCCCC)CCCCCCCC (stereo not drawn) [Bis(2-hexyldecyl) azelate]
Flashpoint (Flashpoint; Table 2, base oil): 278 °C
η40° C. (Kinematic viscosity; Table 2, 40° C.): 33.0 mm^2/s
η100° C. (Kinematic viscosity; Table 2, 100° C.): 6.60 mm^2/s
Pour point (Pour point; Table 2, base oil): −64 °C
VI (Viscosity index (VI); Table 2, base oil): 160

Compound: CC(C)CCCCCCCCCCOC(=O)CCCCCCCC(=O)OCCCCCCCCCCC(C)C [C9D13, di(isotridecyl)nonanedioate]
Flashpoint (Flashpoint; Table 2, base oil): 258 °C
η40° C. (Kinematic viscosity; Table 2, 40° C.): 42.4 mm^2/s
η100° C. (Kinematic viscosity; Table 2, 100° C.): 6.82 mm^2/s
η40° C. (Kinematic viscosity; Table 3, 40° C.): 36.1 mm^2/s
η100° C. (Kinematic viscosity; Table 3, 100° C.): 6.8 mm^2/s
NOACK ([1]; Table 2, base oil): 4.0%
NOACK ([1]; Table 3, 250° C. for 1 h): 3.5%
Pour point (Pour point; Table 2, base oil): −39 °C
VI (Viscosity index (VI); Table 2, base oil): 124
VI (Viscosity index (VI); Table 3): 150

Compound: CC(C)CCCCCCCCCCOC(=O)CCCCCCCCC(=O)OCCCCCCCCCCC(C)C [C10D13, di(isotridecyl)decanedioate]
Flashpoint (Flashpoint; Table 3): 250 °C
η40° C. (Kinematic viscosity; Table 3, 40° C., listed as C10D13 (4th sample)): 35.5 mm^2/s
η40° C. (Kinematic viscosity; Table 3, 40° C., listed as C10D13 (5th sample)): 36.0 mm^2/s
η40° C. (Kinematic viscosity; Table 3, 40° C., listed as C10D13 (6th sample)): 35.7 mm^2/s
η100° C. (Kinematic viscosity; Table 3, 100° C., listed as C10D13 (4th sample)): 7.2 mm^2/s
η100° C. (Kinematic viscosity; Table 3, 100° C., listed as C10D13 (5th sample)): 6.8 mm^2/s
η100° C. (Kinematic viscosity; Table 3, 100° C., listed as C10D13 (6th sample)): 6.7 mm^2/s
NOACK ([1]; Table 3, 250° C. for 1 h, listed as C10D13 (4th sample)): 2.7%
NOACK ([1]; Table 3, 250° C. for 1 h, listed as C10D13 (5th sample)): 4%
NOACK ([1]; Table 3, 250° C. for 1 h, listed as C10D13 (6th sample)): 3.4%
Pour point (Pour point; [8]): −52 °C
Pour point (Pour point; [9]): −50 °C
VI (Viscosity index (VI); [8]): 172
VI (Viscosity index (VI); [9]): 150
VI (Viscosity index (VI); Table 3, listed as C10D13 (6th sample)): 149

Compound: CC(C)CCCCCCCCCCOC(=O)CCCCCCCCCCC(=O)OCCCCCCCCCCC(C)C [C12D13, di(isotridecyl)dodecanedioate]
Flashpoint (Flashpoint; Table 2, base oil): 277 °C
Flashpoint (Flashpoint; [10]): 276 °C
Flashpoint (Flashpoint; [11]): 277 °C
Flashpoint (Flashpoint; [12]): 261 °C
η40° C. (Kinematic viscosity; Table 2, 40° C.): 42.0 mm^2/s
η100° C. (Kinematic viscosity; Table 2, 100° C.): 7.5 mm^2/s
η40° C. (Kinematic viscosity; Table 3, 40° C., listed as C12D13 (1st sample)): 40.47 mm^2/s
η40° C. (Kinematic viscosity; Table 3, 40° C., listed as C12D13 (2nd sample)): 42.0 mm^2/s
η40° C. (Kinematic viscosity; Table 3, 40° C., listed as C12D13 (3rd sample)): 41.2 mm^2/s
η100° C. (Kinematic viscosity; Table 3, 100° C., listed as C12D13 (1st sample)): 7.573 mm^2/s
η100° C. (Kinematic viscosity; Table 3, 100° C., listed as C12D13 (2nd sample)): 7.5 mm^2/s
η100° C. (Kinematic viscosity; Table 3, 100° C., listed as C12D13 (3rd sample)): 7.6 mm^2/s
η150° C. (Kinematic viscosity; Table 3, 150° C.): 3.45 mm²/s
water endangerment class (WGK) [2]: WGK 1
Aquatic toxicity OECD 202 [3]: 880 mg/L
NOACK ([1]; Table 2, base oil): 5.7%
NOACK ([1]; Table 3, 250° C. for 1 h, listed as C12D13 (1st sample)): 2.4%
NOACK ([1]; Table 3, 250° C. for 1 h, listed as C12D13 (2nd sample)): 4.3%
NOACK ([1]; Table 3, 250° C. for 1 h, listed as C12D13 (3rd sample)): 2.9%
Pour point (Pour point; Table 2, base oil): −57 °C
Pour point (Pour point; [10]): −48 °C
Pour point (Pour point; [11]): −57 °C
Pour point (Pour point; [12]): −51 °C
HTHS150° C. [4]: 2.7 mPa·s
VI (Viscosity index (VI); Table 2, base oil): 158
VI (Viscosity index (VI); [10]): 158
VI (Viscosity index (VI); [11]): 147
VI (Viscosity index (VI); [12]): 156
Density (Density; listed as C12D13 (1st sample)): 0.9051 g/mL
Density (Density; listed as C12D13 (2nd sample)): 0.9020 g/mL
Density (Density; listed as C12D13 (3rd sample)): 0.904 g/mL
CCS−20° C. ([5]; listed as C12D13 (1st sample)): 1910 mPas
CCS−20° C. ([5]; listed as C12D13 (2nd sample)): 1700 mPas
CCS−25° C. ([5]; listed as C12D13 (1st sample)): 3210 mPas
CCS−25° C. ([5]; listed as C12D13 (3rd sample)): 3230 mPas
Aquatic toxicity OECD 203 [6]: >1000 mg/L

Compound: CC(C)CCCCCCCCCCCCCCC(=O)OCC(C)(C)COC(=O)CCCCCCCCCCCCCCC(C)C [D5C18, neopentyl glycol di(isostearate)]
Flashpoint (Flashpoint; Table 3): 280 °C
η40° C. (Kinematic viscosity; Table 3, 40° C.): 46.0 mm^2/s
η100° C. (Kinematic viscosity; Table 3, 100° C.): 8.0 mm^2/s
Aquatic toxicity OECD 202 [3]: >1000 mg/L
Aquatic toxicity OECD 201 [7]: >1000 mg/L
NOACK ([1]; Table 3, 250° C. for 1 h): 2.0%
Pour point (Pour point; Table 3): −44 °C
VI (Viscosity index (VI); Table 3): 146
Aquatic toxicity OECD 203 [6]: >10 000 mg/l

Compound: CC(C)CCCCCCCCCCOC(=O)CCCCC(=O)OCCCCCCCCCCC(C)C [DITA, diisotridecyl adipate, reference compound]
Flashpoint (Flashpoint; Table 2, base oil): 227 °C
Flashpoint (Flashpoint; Table 3): 244 °C
η40° C. (Kinematic viscosity; Table 2, 40° C.): 27.0 mm^2/s
η100° C. (Kinematic viscosity; Table 2, 100° C.): 5.4 mm^2/s
η40° C. (Kinematic viscosity; Table 3, 40° C.): 25 mm^2/s
η100° C. (Kinematic viscosity; Table 3, 100° C.): 5 mm^2/s
Aquatic toxicity OECD 202 [3]: >100 mg/L
Aquatic toxicity OECD 201 [7]: >1000 mg/L
NOACK ([1]; Table 2, base oil): 8-10%
NOACK ([1]; Table 3, 250° C. for 1 h): 10.0%
Pour point (Pour point; Table 2, base oil): −51 °C
Pour point (Pour point; Table 3): −60 °C
VI (Viscosity index (VI); Table 2, base oil): 139
VI (Viscosity index (VI); Table 3): 139
Density (Density): 0.91 g/mL
CCS−20° C. [5]: 1455 mPas
CCS−25° C. [5]: 2646 mPas

Compound: CC(C)CCCCCCCOC(=O)CCCCCCCCCCC(=O)OCCCCCCCC(C)C [Di(isodecyl) dodecanedioate]
Flashpoint (Flashpoint; Table 2, base oil): 266 °C
η40° C. (Kinematic viscosity; Table 2, 40° C.): 25.7 mm^2/s and 23.4 mm^2/s
η100° C. (Kinematic viscosity; Table 2, 100° C.): 5.58 mm^2/s and 5.2 mm^2/s
NOACK ([1]; Table 2, base oil): 3.5% and 4.3%
VI (Viscosity index (VI); Table 2, base oil): 161 and 162

Compound: Di(C9) dodecanedioate
Flashpoint (Flashpoint; Table 2, base oil): 245 °C
η40° C. (Kinematic viscosity; Table 2, 40° C.): 24.8 mm^2/s
η100° C. (Kinematic viscosity; Table 2, 100° C.): 5.6 mm^2/s
NOACK ([1]; Table 2, base oil): 5.0%
VI (Viscosity index (VI); Table 2, base oil): 189

Compound: Di(iso-C9) dodecanedioate
η40° C. (Kinematic viscosity; Table 2, 40° C.): 23.2 mm^2/s
η100° C. (Kinematic viscosity; Table 2, 100° C.): 5.28 mm^2/s
NOACK ([1]; Table 2, base oil): 6.0%
Pour point (Pour point; Table 2, base oil): −25 °C
VI (Viscosity index (VI); Table 2, base oil): 184

Second part, led by results:

Flashpoint (Flashpoint; Table 2, base oil): 235 °C
η40° C. (Kinematic viscosity; Table 2, 40° C.): 14.0 mm^2/s
η100° C. (Kinematic viscosity; Table 2, 100° C.): 3.10 mm^2/s
NOACK ([1]; Table 2, base oil): 15.5%
Pour point (Pour point; Table 2, base oil): −60 °C
VI (Viscosity index (VI); Table 2, base oil): 148
Compound: CC(C)CCCCCCCOC(=O)CCCCC(=O)OCCCCCCCC(C)C [Diisodecyl adipate]

Flashpoint (Flashpoint; Table 2, base oil): 230 °C
η40° C. (Kinematic viscosity; Table 2, 40° C.): 18.1 mm^2/s
η100° C. (Kinematic viscosity; Table 2, 100° C.): 4.3 mm^2/s
NOACK ([1]; Table 2, base oil): 9.8%
Pour point (Pour point; Table 2, base oil): −65 °C
VI (Viscosity index (VI); Table 2, base oil): 151
Compound: CC(C)CCCCCCCOC(=O)CCCCCCCC(=O)OCCCCCCCC(C)C [Diisodecyl azelate]

η40° C. (Kinematic viscosity; Table 2, 40° C.): 34.3 mm^2/s
η100° C. (Kinematic viscosity; Table 2, 100° C.): 5.1 mm^2/s
VI (Viscosity index (VI); Table 2, base oil): 75
Compound: CCCCCCCCCCCCCCOC(=O)CCCCC(=O)OCCCCCCCCCCCCCC [Ditetradecyl adipate]

Flashpoint (Flashpoint; Table 2, base oil): 243 °C
η40° C. (Kinematic viscosity; Table 2, 40° C.): 33.8 mm^2/s
η100° C. (Kinematic viscosity; Table 2, 100° C.): 6.4 mm^2/s
Pour point (Pour point; Table 2, base oil): −55 °C
VI (Viscosity index (VI); Table 2, base oil): 145
Compound: CCCCCCCCCCCCCOC(=O)CCCCCCCC(=O)OCCCCCCCCCCCCC [Ditridecyl azelate]

η40° C. (Kinematic viscosity; Table 2, 40° C.): 25.25 mm^2/s
η100° C. (Kinematic viscosity; Table 2, 100° C.): 5.58 mm^2/s
NOACK ([1]; Table 2, base oil): 7.4%
Pour point (Pour point; Table 2, base oil): −38 °C
VI (Viscosity index (VI); Table 2, base oil): 182
Compound: Dodecanediol dipelargonate

Flashpoint (Flashpoint; Table 3): 235 °C
η40° C. (Kinematic viscosity; Table 3, 40° C.): 22 mm^2/s
η100° C. (Kinematic viscosity; Table 3, 100° C.): 4.5 mm^2/s
NOACK ([1]; Table 3, 250° C. for 1 h): 3.6%
Pour point (Pour point; Table 3): −30 °C
VI (Viscosity index (VI); Table 3): 140
Density (Density): 0.94 g/mL
CCS−20° C. [5]: 221 mPas
CCS−25° C. [5]: 853 mPas
Compound: trimethylolpropane ester [TMP-C8/10, reference compound]
Aquatic toxicity OECD 202 [3]: 600 mg/L
Aquatic toxicity OECD 201 [7]: 140 mg/L
Aquatic toxicity OECD 203 [6]: >10 000 mg/l
